The source of these data is ChEMBL document CHEMBL5154916, “Multiparameter Optimization of Naphthyridine Derivatives as Selective α5-GABAA Receptor Negative Allosteric Modulators” (J Med Chem, 2022).

One data set deals with T1, Cytochrome P450 2B6 (Homo sapiens, UniProt P20813).
T1 sequence (P20813 whole entry): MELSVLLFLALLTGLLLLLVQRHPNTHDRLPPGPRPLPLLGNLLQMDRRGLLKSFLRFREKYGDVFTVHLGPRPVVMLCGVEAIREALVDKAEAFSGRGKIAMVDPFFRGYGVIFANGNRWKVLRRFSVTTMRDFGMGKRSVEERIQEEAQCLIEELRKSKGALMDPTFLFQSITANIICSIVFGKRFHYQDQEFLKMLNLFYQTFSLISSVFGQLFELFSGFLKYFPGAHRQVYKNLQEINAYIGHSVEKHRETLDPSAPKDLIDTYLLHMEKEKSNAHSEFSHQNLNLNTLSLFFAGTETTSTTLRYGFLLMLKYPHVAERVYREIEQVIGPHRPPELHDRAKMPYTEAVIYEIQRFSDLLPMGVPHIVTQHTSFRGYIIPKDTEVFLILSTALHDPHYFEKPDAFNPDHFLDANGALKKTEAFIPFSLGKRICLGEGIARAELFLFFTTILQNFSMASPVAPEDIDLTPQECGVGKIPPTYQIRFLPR
Description: Inhibition of CYP2B6 (unknown origin). Type of data set: ADME.

The nature of data set [1]: Genotoxicity in Salmonella typhimurium up to 5000 ug/ml by Ames test. Format: toxicity. To be noted: salmonella enterica subsp. enterica serovar typhimurium; dose < 5000 µg/ml. (In general: In the Ames test, an excess of revertant colonies over the control signals mutagenicity.)
Data set [2] in a line: Passive permeability in human Caco-2 cells assessed as permeability damage ratio at 10 uM by HPLC-UV analysis. Type of data set: ADME, cell-based. To be noted: caco-2, 10 µM. In general terms: Caco-2 monolayers are a common model of the intestinal barrier.
Data set [3] can be described thus: Metabolic stability in dog hepatocyte assessed as intrinsic clearance measured per 10^6 cells. Type of data set: ADME, cell-based, Canis lupus familiaris. The following applies: hepatocytes, read-out: CLH.
The target of a further data set is T2, Cytochrome P450 1A2 (Homo sapiens, UniProt P05177).
T2 sequence (P05177 whole entry): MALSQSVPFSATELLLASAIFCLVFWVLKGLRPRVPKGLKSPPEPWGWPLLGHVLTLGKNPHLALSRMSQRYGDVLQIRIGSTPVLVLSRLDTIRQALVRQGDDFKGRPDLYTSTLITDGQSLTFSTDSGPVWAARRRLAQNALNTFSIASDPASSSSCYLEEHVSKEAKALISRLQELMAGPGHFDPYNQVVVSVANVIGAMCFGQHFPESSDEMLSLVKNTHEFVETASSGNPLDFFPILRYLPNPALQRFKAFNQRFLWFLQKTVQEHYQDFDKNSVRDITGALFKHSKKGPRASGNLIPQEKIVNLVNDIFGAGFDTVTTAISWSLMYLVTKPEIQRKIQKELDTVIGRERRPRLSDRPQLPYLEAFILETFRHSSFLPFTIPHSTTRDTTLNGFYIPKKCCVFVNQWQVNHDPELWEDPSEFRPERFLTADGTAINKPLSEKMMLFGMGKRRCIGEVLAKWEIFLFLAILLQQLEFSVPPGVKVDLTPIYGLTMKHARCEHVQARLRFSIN
Put plainly: Inhibition of CYP1A2 (unknown origin). Type of data set: ADME.

The nature of data set [4]: Metabolic stability in guinea pig hepatocyte assessed as intrinsic clearance measured per 10^6 cells. Type of data set: ADME, cell-based, Cavia porcellus. The following applies: hepatocytes, read-out: CLH.
Data set [5] in a line: Metabolic stability in Wistar rat hepatocyte assessed as intrinsic clearance measured per 10^6 cells. To be noted: hepatocytes, read-out: CLH. Format: ADME, cell-based.
The target in data set [6] is GABA-A receptor; alpha-5/beta-3/gamma-2 (Homo sapiens) (UniProt P18507+P28472+P31644). Put plainly: Negative allosteric modulation activity at human recombinant alpha5beta3gamma2 GABAA receptor stably expressed in HEK293 cells assessed as modulation at alpha5 subunit at 10 uM by Patch clamp method. Type of data set: cell-based. The following applies: filed as negative allosteric modulator. For orientation: The patch-clamp technique gives a direct electrical read-out from membranes.

Data set [7] can be described thus: […] in po dosed Wistar rat assessed as NED by Irwin test. Format: organism-based. The following applies: in vivo, read-out: ED.

A value given as a limit tells only on which side of the number the result lay.

By IC50 is commonly meant the concentration that gives 50% inhibition.

`Cc1onc(-c2ccc(F)cc2)c1COc1ccc2c(n1)CCN(C(=O)CS(C)(=O)=O)C2`: the concentration for half-maximal inhibition (IC50) against Cytochrome P450 2B6 was 20.8 µM; against Cytochrome P450 1A2, greater than 50 µM. The Activity entry in data set [1] is “Non-Toxic”; in [6] it was -39%. For the same molecule, the Ratio in data set [2] was 29. Further, the hepatocyte CLint in [3] is 2 µL/min/1e6 cells; in data set [4], 4 µL/min/1e6 cells; in data set [5], 19 µL/min/1e6 cells. Besides, the NOAEL in data set [7] was no less than 300 mg/kg.
